Laboratory results from patent publication US4113856A, “Antibiotic mm 13902” (Beecham Group Limited, priority 1974, dated 1978).
“Also recorded” adds a separate entry of the source. Where a name gives a salt, the structure may show the parent alone. Blank lines part the entries; values can stand above or below the molecule they belong to.

Assays:
stability = format: physicochemical
[1] = tested on: Escherichia coli, Klebsiella aerogenes, Proteus mirabilis, Proteus morganii and Staphylococcus aureus Russell; test: synergy with ampicillin (in words); format: cell-based, bacteria (various species); conditions: mixed with ampicillin
[2] = tested on: various species including strains of Staphylococcus aureus, Bacillus subtilis, Escherichia coli, Klebsiella aerogenes, Proteus mirabilis; test: antibacterial activity against various species (in words); format: cell-based, bacteria (various species); conditions: sodium salt
[3] = tested on: Staphylococcus aureus(Russell); test: bioautography zone diameter (Table 4); format: cell-based; conditions: TLC cellulose, butanol/isopropyl alcohol/water 7:7:6
Klebsiella aerogenes [4] = test: synergy with benzylpenicillin; format: cell-based; conditions: extracts from cellulose thin layer
Source text: (§1) In a further experiment, the two substances were separated on a cellulose thin layer developed with isopropanol:water (8:2) and extracted from the cellulose with phosphate buffer.

[5] = tested on: B. subtilis, Staphylococcus aureus, Escherichia coli, Salmonella typhimurium, Proteus mirabilis, Proteus morganii and Klebsiella aerogenes; test: detection by bioautography after TLC on cellulose (in words); format: cell-based, bacteria (various species)
Enterobacter aerogenes = test: bioautography zone diameter (Table 4); format: cell-based; conditions: TLC cellulose, butanol/isopropyl alcohol/water 7:7:6
[6] = tested on: Escherichia coli β-lactamase; test: β-lactamase inhibition (in words); format: biochemical
Source text: as §1

solubility = conditions: sodium salt
Klebsiella aerogenes [7] = test: bioautography zone diameter (Table 4); format: cell-based; conditions: TLC cellulose, butanol/isopropyl alcohol/water 7:7:6
[8] = tested on: Staphylococcus aureus(Oxford); test: bioautography zone diameter (Table 4); format: cell-based; conditions: TLC cellulose, butanol/isopropyl alcohol/water 7:7:6
[9] = activity in arbitrary units per mg; conditions: Example 3
Method: The material produced above was arbitrarily assigned an activity of 340 l/ml. Assays were determined as described in Description 3.

Bacillus subtilis = test: bioautography zone diameter (Table 4); format: cell-based; conditions: TLC cellulose, butanol/isopropyl alcohol/water 7:7:6
Escherichia coli 10418 = test: bioautography zone diameter (Table 4); format: cell-based; conditions: TLC cellulose, butanol/isopropyl alcohol/water 7:7:6
Proteus morganii = test: bioautography zone diameter (Table 4); format: cell-based; conditions: TLC cellulose, butanol/isopropyl alcohol/water 7:7:6
carbonic anhydrase = test: enzyme inhibition (general enzyme poison check); format: biochemical; conditions: at concentrations in excess of those required to inhibit E. coli β-lactamase
chymotrypsin = test: enzyme inhibition (general enzyme poison check); format: biochemical; conditions: at concentrations in excess of those required to inhibit E. coli β-lactamase
monoamine oxidase = test: enzyme inhibition (general enzyme poison check); format: biochemical; conditions: at concentrations in excess of those required to inhibit E. coli β-lactamase
[10] = tested on: β-lactamase of Klebsiella aerogenes; test: β-lactamase inhibition (in words); format: biochemical
Escherichia coli 311 = test: bioautography zone diameter (Table 4); format: cell-based; conditions: TLC cellulose, butanol/isopropyl alcohol/water 7:7:6
[11] = tested on: β-lactamase of Staphylococcus aureus; test: β-lactamase inhibition (in words); format: biochemical
urease = test: enzyme inhibition (general enzyme poison check); format: biochemical; conditions: at concentrations in excess of those required to inhibit E. coli β-lactamase
trypsin = test: enzyme inhibition (general enzyme poison check); format: biochemical; conditions: at concentrations in excess of those required to inhibit E. coli β-lactamase
dopa decarboxylase = test: enzyme inhibition (general enzyme poison check); format: biochemical; conditions: at concentrations in excess of those required to inhibit E. coli β-lactamase
E. coli JT417 = test: MIC by serial dilution in nutrient agar (Table 2); format: cell-based; conditions: ampicillin alone
Proteus mirabilis 889 = test: MIC by serial dilution in nutrient agar (Table 2); format: cell-based; conditions: ampicillin alone
Proteus mirabilis 247 = test: MIC by serial dilution in nutrient agar (Table 2); format: cell-based; conditions: ampicillin alone
Staph.aureus (Russell H) = test: MIC by serial dilution in nutrient agar (Table 2); format: cell-based; conditions: ampicillin alone
Staph.aureus (Russell) = test: MIC by serial dilution in nutrient agar (Table 2); format: cell-based; conditions: ampicillin alone
Proteus rettgeri R110 = test: MIC by serial dilution in nutrient agar (Table 2); format: cell-based; conditions: ampicillin alone
[12] = tested on: Klebsiella aerogenes IP282; test: MIC by serial dilution in nutrient agar (Table 2); format: cell-based; conditions: ampicillin alone
E. coli JT39 = test: MIC by serial dilution in nutrient agar (Table 2); format: cell-based; conditions: ampicillin alone
Proteus morganii F = test: MIC by serial dilution in nutrient agar (Table 2); format: cell-based; conditions: ampicillin alone
E. coli B11 = test: MIC by serial dilution in nutrient agar (Table 2); format: cell-based; conditions: ampicillin alone

- stability (stability): not sufficiently stable
Structure (SMILES): CC(=O)NC=CSC1=C(C(=O)O)N2C(=O)C(C(C)OS(=O)(=O)O)C2C1 (centres unmarked) [monobasic salts of MM 13902]

Structure (SMILES): CC(=O)N/C=C/SC1=C(C(=O)O)N2C(=O)C(C(C)OS(=O)(=O)O)C2C1 (centres unmarked) [MM 13902]
- synergy with ampicillin [1]: synergizes its activity
- antibacterial activity [2]: possessed antibacterial activity
- Zone Diameter on Bioautography [3]: 4.0 mm
- synergy with benzylpenicillin (Klebsiella aerogenes [4]): shown to be synergistic with benzylpenicillin
- detection by bioautography [5]: may be detected by bioautography on a variety of organisms
- Zone Diameter on Bioautography (Enterobacter aerogenes): No Zone
- stability (stability): tends to be unstable when in the unsalted acid form; also recorded: not sufficiently stable
- β-lactamase inhibition [6]: shown to be inhibitors
- solubility in chloroform, diethylether and hydrocarbons (solubility): substantially insoluble
- solubility in methanol (solubility): soluble
- solubility in water (solubility): highly soluble
- Zone Diameter on Bioautography (Klebsiella aerogenes [7]): 20.0 mm
- Zone Diameter on Bioautography [8]: 4.0 mm
- activity ([9]; partially purified salt, brown solid): 37,000 units/mg

Structure (SMILES): CC(=O)N/C=C/[S+]([O-])C1=C(C(=O)O)N2C(=O)C(C(C)OS(=O)(=O)O)C2C1 (centres unmarked) [MM 4550A]
- synergy with ampicillin [1]: synergyses its activity
- antibacterial activity [2]: possesses antibacterial activity
- Zone Diameter on Bioautography (Bacillus subtilis): 24.0 mm
- Zone Diameter on Bioautography [3]: 12.0 mm
- Zone Diameter on Bioautography (Escherichia coli 10418): 20.0 mm
- Zone Diameter on Bioautography (Proteus morganii): 16.0 mm
- synergy with benzylpenicillin (Klebsiella aerogenes [4]): shown to be synergistic with benzylpenicillin
- detection by bioautography [5]: may be detected by bioautography on a variety of organisms
- inhibition of carbonic anhydrase (carbonic anhydrase): does not inhibit
- Zone Diameter on Bioautography (Enterobacter aerogenes): 6.5 mm
- β-lactamase inhibition [6]: possesses enzyme inhibitory activity; also recorded: shown to be inhibitors
- inhibition of chymotrypsin (chymotrypsin): does not inhibit
- inhibition of monoamine oxidase (monoamine oxidase): does not inhibit
- β-lactamase inhibition [10]: possesses enzyme inhibitory activity
- Zone Diameter on Bioautography (Escherichia coli 311): 17.5 mm
- Zone Diameter on Bioautography (Klebsiella aerogenes [7]): 20.0 mm
- β-lactamase inhibition [11]: possesses enzyme inhibitory activity
- Zone Diameter on Bioautography [8]: 13.0 mm
- inhibition of urease (urease): does not inhibit
- inhibition of trypsin (trypsin): does not inhibit
- inhibition of dopa decarboxylase (dopa decarboxylase): does not inhibit

Structure (SMILES): CC1(C)S[C@@H]2[C@H](NC(=O)[C@H](N)c3ccccc3)C(=O)N2[C@H]1C(=O)O [Ampicillin]
- minimum inhibitory concentration (E. coli JT417): 250
- minimum inhibitory concentration (Proteus mirabilis 889): > 500
- minimum inhibitory concentration (Proteus mirabilis 247): > 500
- minimum inhibitory concentration (Staph.aureus (Russell H)): > 500
- minimum inhibitory concentration (Staph.aureus (Russell)): 250
- minimum inhibitory concentration (Proteus rettgeri R110): 250
- minimum inhibitory concentration [12]: 50
- minimum inhibitory concentration (E. coli JT39): > 500
- minimum inhibitory concentration (Proteus morganii F): 50
- minimum inhibitory concentration (E. coli B11): > 500

Structure (SMILES): CC(=O)NC=CSC1=C(C(=O)O)N2C(=O)C(C(C)OS(=O)(=O)O)C2C1 (centres unmarked) [di-sodium salt of MM 13902]
- activity ([9]; di-sodium salt after cellulose chromatography, yellowish powder): 73,000 units/mg
